Measurements published in a melting point compilation (Tetko et al.; mined from patent text by program, amines drawn as free bases though some values may be those of a salt).

Compound	melting point [°C]
CCCn1c(CCOC)nc2c(N)nc3cc(OC4CCN(C(N)=O)CC4)ccc3c21	207 to 208
CCC(CC)C(=O)OC1CC(C)C=C2C=CC(C)C(CCC3CC(O)CC(=O)O3)C21 (stereo not drawn)	120 to 122
CC1(C)c2cc(O)ccc2OC1O (stereo not drawn)	78 to 81
CC(C)(C)NC(=O)[C@@H]1C[C@H](Br)CN1C(=O)OC(C)(C)C	159 to 160
O=C(c1ccc(C(=O)c2ccc(F)c([N+](=O)[O-])c2)cc1)c1ccc(F)c([N+](=O)[O-])c1	221 to 223
CC(CCC(=O)C(C)(C)O)C1CCC2C3CC(O)C4CC(O)CCC4(C)C3CCC12C (stereo not drawn)	189 to 191
C[C@@H]1CN(Cc2ccccc2)C[C@H]1N (relative stereo)	74 to 80
OC[C@H](O)[C@@H](O)[C@H](O)[C@H](O)C=NN(Cc1ccccc1)c1ccccc1	124 to 128
C=CCOC(=O)N1CCC[C@@H](OC)[C@@H]1CC(=O)Cn1cnc2cc(Cl)c(Oc3ccc(Cl)cc3)cc2c1=O (relative stereo)	138 to 141
N#CC(C=O)=Cc1ccsc1	123 to 124
Nc1c(F)c(N2CCCCCC2)c(F)c2c1c(=O)c(C(=O)O)cn2C1CC1	234 to 236
CN(C)CCCN(C=O)C1CCC2C3CCc4ccccc4C3CCC21C (stereo not drawn)	123 to 125
CC1(C(=O)c2c[nH]c3ncc(Br)nc23)CCCCCC1	198
CCCCCCCCCCOc1ccc2c(=O)c3cccc(C(=O)O)c3oc2c1CCC(=O)O	> 210
Cc1ccc(N(C)N=C(N)C(N)=O)cc1OCC(F)(F)C(F)(F)F	129 to 130
O=C(O)CC(=O)Nc1ccccc1CCNC(=O)/C(=C/c1c[nH]c2ccccc12)NC(=O)OC1C2CC3CC(C2)CC1C3 (stereo not drawn)	112 to 120
CC(C)(C)c1cc(N=Nc2cc(Cl)ccc2Cl)c(O)c(C(C)(C)C)c1	121 to 126
CC(C)(CO)CCCC(O)CCCC(O)CCCC(C)(C)CO (stereo not drawn)	85 to 86
O=S(=O)(CC1CCC1)c1nc[nH]n1	125 to 134
CCOc1csc(NC(C)=O)c1C#N	242 to 243
Cc1nc(C)c(Cl)c(NCc2nccc(SCCCCBr)c2C)n1	127 to 128
Brc1ccc(N2CCC3(CCNCC3)CC2)nc1	103 to 105
COc1ccc(C(=O)C2=C(O)C(=O)N(c3nnc(C(C)C)s3)C2c2ccc(C(C)(C)C)cc2)cc1 (stereo not drawn)	257
O=C(NCCN1CCCC1)N1CCN(c2ccccc2)CC1	81.5 to 84

Compound	melting point [°C]
O=C1c2cccc(OC(F)=C(F)F)c2C(=O)N1c1ccc(OC(F)=C(F)F)cc1	172
CC(Cc1ccc(Br)cc1)C(=O)O (stereo not drawn)	69 to 70
NCc1cccc(C2CCN(c3nc4c(cc3F)c(=O)c(C(=O)O)cn4C3CC3)C2)c1 (stereo not drawn)	274 to 276
C#Cc1cnc(C2=NC(C)(C(C)C)C(=O)N2)c(C(=O)O)c1 (stereo not drawn)	190 to 195
Cc1nc(N2CCC(Cc3ccc(C(F)(F)F)cc3)C2=O)sc1C(=O)NCc1ccccc1 (stereo not drawn)	174 to 175
O=C1C(=O)N2CCOc3cccc1c32	188
CCCc1cc(Cl)c2oc(C(=O)O)c(C)c2c1O	200 to 203
CCN1CCC[C@H]1C(N)=O	107 to 108
O=C(NCC(F)(F)F)c1nn(-c2ccc(F)cc2F)c2c1C1CCC2C1 (stereo not drawn)	149 to 152
Cc1ccc(C=CC(C#N)=NOS(C)(=O)=O)cc1	134 to 135
O=C(CCCc1ccccc1)N[C@H](Cc1ccccc1C(F)(F)F)[C@@H](O)c1ccc(F)cc1 (racemic)	161 to 162
O=C1C2=CSCCN2C(=O)N1c1ccc(Cl)cc1	155 to 158
COC(=O)[C@H](C)NC(=O)CCn1cc(C2=C(c3cn(C)c4ccccc34)C(=O)NC2=O)c2ccccc21	142 to 149
O=C1OC(=O)[C@@H]2CCC[C@H]12	63 to 68
CC(C)c1cccc(C(C)C)c1NC(=O)CNC(c1ccccc1)c1cccc(CO)c1 (stereo not drawn)	57 to 62
COCCOC(=O)C1=C(C(F)F)NC(C)=C(C(=O)OC(C)C)C1c1cccc([N+](=O)[O-])c1 (stereo not drawn)	146 to 147
COC1=Cc2cc(Cl)ccc2C(O)(C2CCN(C)CC2)c2ccsc21 (stereo not drawn)	223 to 227
COCCNC(=O)c1cccc(-c2cccc3cc(Cc4cccc(C(F)(F)F)c4)sc23)c1F	94 to 95
O=C(O)c1ccc2c(c1)C(=O)NC(C(Cl)(Cl)Cl)N2 (stereo not drawn)	> 280
CC(=O)SCCC(=O)N1[C@@H](c2ccccc2O)SC[C@H]1C(=O)N(c1ccccc1)[C@@H](C)C(=O)OC(C)(C)C	140 to 142
COC(=O)Cn1nnnc1CCC(NC(=O)CCC(C)(NC(=O)OCc1ccccc1)C(=O)O)C(=O)OC (stereo not drawn)	64 to 65
O=C(c1ccc2c(c1)OC(c1cccc(Cl)c1)(c1cccc(Cl)c1)O2)N1CCCCC1	54
CC(C)Cn1cnc(C#N)c1N	186 to 188
CCC(O)(CC)Cc1ccc(N)cc1	85 to 86

Now from value to compound:

melting point [°C]	Compound
174 to 178	O=c1c(NCCCOc2cccc(CN3CCCCC3)c2)c(NCc2cccnc2)c1=O
109	Cc1c(CC(=O)N[C@@H](CO[N+](=O)[O-])C(=O)O)cc(-c2ccc(S(C)(=O)=O)cc2)n1-c1ccc(F)cc1
102 to 103	Cc1cc2c(s1)CCCC1CC(=O)N(c3ccccc3)N=C21 (stereo not drawn)
140 to 142	Cc1cc(C)c(C)c(COc2cccc(-c3ccoc3C(=O)NNC(=O)c3ccc(O)c([N+](=O)[O-])c3)c2)c1C
30 to 32	COCc1oc(C)cc(=O)c1OCc1ccccc1
101 to 102	C=C(C)Sc1oc2cc(OCc3ccccc3)ccc2c(=O)c1-c1ccc(OC)cc1
93 to 95	Cc1ccc(S(=O)(=O)N2C(=O)[C@H]3CC=C[C@H]32)cc1
202 to 205	Cn1nc(-c2nc(-n3cccc3)c(N)nc2-c2ccccc2)ccc1=O
126 to 129	C1=Cc2cccnc2Nc2ncccc21
180 to 182	O=C1Cc2ccccc2C(c2ccccc2Cl)N1 (stereo not drawn)
214 to 217	CCCc1cc(-c2ccc(Cl)cc2)nc2c(C(=O)Nc3cccc(S(C)(=O)=O)c3)cnn12
153 to 155	CC1c2ccccc2-c2[nH]c3ccccc3c21 (stereo not drawn)
171 to 172	COC(=O)c1[nH]c2ccccc2c1Oc1ccc(Cl)cc1[N+](=O)[O-]
166 to 167	COc1cc(Nc2nccc(-c3cccc(N)c3)n2)cc(OC)c1OC
245	COc1ccc2c(=O)c(-c3ccc(F)cc3)c(-c3ccc(S(N)(=O)=O)cc3)oc2c1
176 to 177	COc1ccc(-c2cc(Nn3cnnc3)ccc2C#N)cc1
218	NS(=O)(=O)c1ccc(CCN2C(=O)c3ccccc3C2c2ccccc2)cc1 (stereo not drawn)
212 to 216	CC(C)=NOCc1nc2c(N)nc3ccccc3c2n1CC(C)(C)O
215	COc1ccc2cc(-c3nc(-c4ccccc4)no3)c(=O)oc2c1
65	Cc1cc(-n2cccn2)c2cccc(OCc3c(Cl)ccc(S(=O)(=O)N4CCC[C@H]4CO)c3Cl)c2n1
216 to 218	COc1cc2c(cc1C(F)(F)F)N(C(=O)Nc1cc(Br)c(C)c(-c3cccnc3)c1)CC2
183 to 184	CCN1c2ncc(COc3cccnc3)cc2C(=O)N(C)c2ccc(Cl)nc21
128	CC(C)c1ccc(N(Cc2cnn(CC(F)(F)F)c2)C(=O)C2CCCc3c(O)cccc32)cn1 (stereo not drawn)
205 to 206	CN1N=C(c2ccc(F)cc2)c2ccc(F)cc2CS1(=O)=O
165 to 166	COc1ccc(COc2cccnc2NC(=N)Nc2ccc(Cl)cc2)cc1

melting point [°C]	Compound
135 to 138	COc1ccc2c(-c3ccccc3F)noc2c1I
205 to 206	O=C(O)C1=Cc2cc(Cl)c(Oc3ccc(Cl)cc3)cc2OC1C(F)(F)F (stereo not drawn)
208 to 210	O=C(Nc1ccccn1)c1c(C(F)(F)F)nc(-c2ccccc2)c(-c2ccccc2)c1O
153 to 154	O=C(O)c1ccc2nc3c(c(=O)n2c1)CCC3=Cc1ccccc1
220	CCCC1=C(C(=O)OCC)C(c2cccc(Cl)c2Cl)c2c[nH]nc2N1 (stereo not drawn)
116 to 118	COC(=O)/C=C/c1cc(-c2ccc(C)cc2)cs1
212 to 215	COc1ccc(-c2c3c(cc4ccc(OC(C)C)cc24)C(=O)NC3)cc1
176	Cn1ncnc1COc1nn2c(-c3ccccc3F)nncc2c1-c1cccc(F)c1F
141 to 142	CN(CCO)C(=O)c1cc2ccccc2[nH]1
107 to 110	COc1ccccc1N1CCN(CCNC(=O)c2nsc3ccccc23)CC1
107 to 108	O=C(CC1CC(OC(=O)c2ccccc2)CCC1=O)c1ccccc1 (stereo not drawn)
165	O=C1c2nccnc2C(=O)N1c1ccc(Cl)cn1
254 to 256	COc1ccc2cnc3c(c2c1)NC(=O)CC3
166 to 169	OC(c1ccccn1)c1cc2ccncc2[nH]1 (stereo not drawn)
189 to 190	Nc1ccc(CCC(=O)N(c2ccccc2)c2ccccc2)cc1[N+](=O)[O-]
145 to 147	CCN(CCNS(=O)(=O)c1ccc(C)cc1)C(=O)c1ccccc1C(=O)c1ccc(Cl)cc1
214 to 216	CC1(C(=O)c2c[nH]c3ncc(-c4cccc(N5CCN(C(=O)CC#N)CC5)c4)nc23)CCCCC1
193	CN(C)C=NS(=O)(=O)c1ccccc1-c1ccc(Cn2c(-c3ccccc3)nc(Cl)c2C=O)cc1
205 to 206	N#Cc1cc([N+](=O)[O-])ccc1NC(=O)c1cccc([N+](=O)[O-])c1
201 to 203	O=C(Cn1nnc2ccccc21)Nc1ccc(-n2nc(C3CC3)cc2C2CC2)c(F)c1
134 to 136	CC(C)(C)C(=O)Oc1nc(-c2ccccc2)sc1-c1ccccc1
154 to 156	CC(C)CCc1c(-c2ccc(S(N)(=O)=O)cc2)cnn(-c2ccc(F)c(Cl)c2)c1=O
212 to 213	O=C(O)COc1c(Br)cc(-c2cccc3sc4ccccc4c23)cc1Br
84 to 86	CC(O)COc1c2ccccc2c(C=O)c2ccccc12 (stereo not drawn)
192	CON(C)C(=O)C(O)CNC(=O)c1cc2cc(Cl)ccc2[nH]1 (racemic)
